Entries after “also recorded” stand apart in the source; their conditions may differ.
How the values were obtained:
[1] = Cleavage studies with a variety of nucleophiles at 50° C. (Example 6); type: physicochemical
Protocol: Cleavage studies were performed according to the scheme shown below using a variety of nucleophiles. The nucleophiles, concentration, pH, and solvent are indicated for each study. The nucleoside analogue containing a 3′-O-blocking group and a linking group were treated with a nucleophile at 50° C. in solvent to form analogues having both the blocking group and linking group cleaved 13 and only the linking group cleaved 15. SM indicates starting material.
Table of Results (Experimental Conditions: T=50° C.; 1.0 mg 12/mL solvent).

polymerase = assay: Polymerase incorporation in sequencing by synthesis on nanoball arrays (FIG. 1); type: biochemical; conditions: compared with unlabeled (cold) control 3′-O-azidomethyl-dTTP
Protocol: (§1) Allenyl-dTTP and cyanoethenyl-dTTP were incubated at room temperature for 24 hours, or 65° C. for 2 hours. Fresh mixes were also made the day of the experiment. Allenyl-dTTP or cyanoethenyl-dTTP were mixed with unlabeled AGC (AGC-Cold) and used as both the hot (labeled) and cold (unlabeled) chase. Nanoball arrays were imaged to obtain a control image. Then, the array was incubated with labeled mixes to check for incorporation on unblocked ends. […] Moreover, both allenyl-dTTP and cyanoethenyl-dTTP are stable at room temperature for 24 hours and 65° C. for 2 hours as indicated by their ability to efficiently incorporate into polymerization product and thereby block subsequent polymerization and incorporation of the hot chase label.

[2] = Stability after incubation, read out by incorporation and blocking of hot chase label; type: physicochemical
Protocol: as §1

[3] = 3′-O-Cyanoethyl cleavage in solution or on Biochips; conditions: added reagent in cleavage buffer, FIGS. 2 and 3
[4] = Monitoring cleavage of 3′-O reversible blocker by LC-MS (Example 2); type: physicochemical
Protocol: Cleavage reactions were performed using 5 mg of compound 8 (3′-O-cyanoethyenyl-thymidine) in 0.25 mL of acetonitrile and 0.25 mL of buffer. Cleavage was monitored by LC-MS and the results are depicted in the table below.

N#C/C=C/O[C@H]1C[C@H](n2cc(C#CCNC(=O)C(F)(F)F)c(=O)[nH]c2=O)O[C@@H]1CO [compound 12]
amount of the product obtained (SM = starting material) ([1]; Entry 22, Morpholine 1.0 M, pH 9.0, Water + 10% MeCN, t = 1 h): 25% SM + 40% of (15) + 35% of unidentified species
amount of the product obtained (SM = starting material) ([1]; Entry 22, Morpholine 1.0 M, pH 9.0, Water + 10% MeCN, t = 18 h): No SM 40% of (15) + 60% of unidentified species
amount of the product obtained (SM = starting material) ([1]; Entry 24, Cleland's reagent (dithiothreitol) 1.0 M, pH 9.0, Water + 10% MeCN, t = 1 h): 5% SM + 95% of unidentified species
amount of the product obtained (SM = starting material) ([1]; Entry 24, Cleland's reagent (dithiothreitol) 1.0 M, pH 9.0, Water + 10% MeCN, t = 18 h): No SM + unidentified species
amount of the product obtained (SM = starting material) ([1]; Entry 25, 4-Methoxy-N-methylaniline 1.0 M, pH 8.3, Water/MeCN (1:2), t = 1 h): 95% SM + 5% of unidentified species
amount of the product obtained (SM = starting material) ([1]; Entry 25, 4-Methoxy-N-methylaniline 1.0 M, pH 8.3, Water/MeCN (1:2), t = 18 h): 95% SM + 5% of unidentified species
amount of the product obtained (SM = starting material) ([1]; Entry 26, N,N′-Dimethylene diamine 1.0 M, pH 9.0, Water + 10% MeCN, t = 1 h): 5% SM + 20% of (15) + 75% of unidentified species
amount of the product obtained (SM = starting material) ([1]; Entry 26, N,N′-Dimethylene diamine 1.0 M, pH 9.0, Water + 10% MeCN, t = 18 h): No SM + 20% of (15) + 80% of unidentified species
amount of the product obtained (SM = starting material) ([1]; Entry 27, N-Methylhydroxyl amine hydrochloride 1.0 M, pH 9.0, Water + 10% MeCN, t = 1 h): 16% Product (13) + 10% of (15) + 74% of unidentified species
amount of the product obtained (SM = starting material) ([1]; Entry 27, N-Methylhydroxyl amine hydrochloride 1.0 M, pH 9.0, Water + 10% MeCN, t = 18 h): 10% of (15) + 90% of unidentified species
amount of the product obtained (SM = starting material) ([1]; Entry 28, N,N′-dimethyl-cis-cyclohexane-1,2-diamine 1.0 M, pH 9.0, Water/MeCN (2:1), t = 1 h): 60% SM + 35% of (15) + 5% of unidentified species
amount of the product obtained (SM = starting material) ([1]; Entry 28, N,N′-dimethyl-cis-cyclohexane-1,2-diamine 1.0 M, pH 9.0, Water/MeCN (2:1), t = 18 h): 30% SM + 50% of (15) + 20% of unidentified species

C=C=CO[C@H]1C[C@H](n2cc(C)c(=O)[nH]c2=O)O[C@@H]1COP(=O)(O)OP(=O)(O)OP(=O)(O)O [allenyl-dTTP, 3′-O-allenyl-thymidine triphosphate]
effectiveness as polymerase substrate for sequencing by synthesis (polymerase): as effective a polymerase substrate for sequencing by synthesis as the unlabeled control 3′-O-azidomethyl-dTTP; also recorded: as effective polymerase substrates for sequencing as the cold control, 3′-azidomethyl-dTTP
stability ([2]; 65° C. for 2 hours): stable
stability ([2]; room temperature for 24 hours): stable

Cc1cn([C@H]2C[C@H](OC=CC#N)[C@@H](COP(=O)(O)OP(=O)(O)OP(=O)(O)O)O2)c(=O)[nH]c1=O [cyanoethenyl-dTTP, 3′-O-cyanoethenyl-thymidine triphosphate]
effectiveness as polymerase substrate for sequencing by synthesis (polymerase): as effective a polymerase substrate for sequencing by synthesis as the unlabeled control 3′-O-azidomethyl-dTTP
effectiveness as polymerase substrate for sequencing by synthesis (polymerase; listed as cyanoethyl-dTTP): as effective polymerase substrates for sequencing as the cold control, 3′-azidomethyl-dTTP
stability ([2]; 65° C. for 2 hours): stable
stability ([2]; room temperature for 24 hours): stable

O=P([O-])([O-])OP(=O)([O-])[O-].[K+].[K+].[K+].[K+] [K4PPi]
effect on cleavage efficiency [3]: improved effect

F [F^−]
effect on cleavage efficiency [3]: improved effect

Cc1cn([C@H]2C[C@H](OC=CC#N)[C@@H](CO)O2)c(=O)[nH]c1=O [compound 8, 3′-O-cyanoethenyl-thymidine]
time to complete cleavage ([4]; 10 equivalents of dimethylamine in acetonitrile/0.1 M TEAB): 20 to 30 min
time to complete cleavage ([4]; 40 equivalents of dimethylamine in acetonitrile/0.1 M TEAB): ≤ 10 min
time to complete cleavage ([4]; 40 equivalents of dimethylamine in acetonitrile/0.5 M phosphate buffer): 10 to 20 min
time to complete cleavage ([4]; 40 equivalents of dimethylamine in acetonitrile/1 M Tris buffer): ≤ 10 min

Source: patent US12195493B2, “Reversibly blocked nucleoside analogues and their use” (MGI Tech Co., Ltd., priority 2016, dated 2025)
